The values below are quoted from earlier work in US20220323396A1, “COMPOSITIONS AND METHODS FOR TREATING VIRAL INFECTION USING ANTIVIRAL COCKTAILS” (priority 2020, published 2022).

Data set [1] deals with human tryptase (Homo sapiens, UniProt Q15661).
For data set [2], the target named is thrombin (Homo sapiens, UniProt P00734). To be noted: values ranging; potent, specific and reversible inhibition.

human tryptase, sequence (Q15661 31-275): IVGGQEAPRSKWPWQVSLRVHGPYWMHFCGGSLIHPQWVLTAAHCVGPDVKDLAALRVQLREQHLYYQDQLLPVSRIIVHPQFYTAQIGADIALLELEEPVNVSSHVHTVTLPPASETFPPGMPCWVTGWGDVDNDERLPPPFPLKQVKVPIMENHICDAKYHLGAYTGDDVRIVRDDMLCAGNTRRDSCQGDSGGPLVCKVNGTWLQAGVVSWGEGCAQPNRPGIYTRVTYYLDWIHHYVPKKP

In general, IC50 refers to the concentration at which inhibition is half-maximal. In the case of `N=C(N)c1ccc2cc(OC(=O)c3ccc(N=C(N)N)cc3)ccc2c1` [Nafamostat], the IC50 was 0.016 nM in data set [1] and 330 to 1900 nM in data set [2].
